Experimental data from patent US8268823B2, “Medical use of triazine derivatives” (University of Greenwich, priority 2006, dated 2012).
Where “and” joins values, the source holds several entries; their conditions need not be identical. Equal entries are not always repeated. Structures can show the parent of a compound that is named as a salt. Where two headings read alike, the source gives them in different places.

Experiments:
sodium channel [1] = assay type: binding, rat
sodium channel [2] = assay: veratrine-evoked uptake of [14C]guanidine into rat forebrain synaptosomes ([14C]guanidine flux); assay type: biochemical
Procedure: The screening strategy is designed to select compounds with appropriate sodium channel blocking activity and low side effect liability. To this end all compounds are processed through the primary sodium channel assay (veratrine-evoked uptake of [^14C]guanidine into rat forebrain synaptosomes) and IC50 values computed from generated concentration-effect curves.
Synaptosomes (heavy and light mitochondrial fraction containing synaptosomes) were prepared by transferring the forebrain (of known wet weight) to a glass Potter vessel to which 9 volumes ice-cold 0.25M sucrose had been added and homogenising, using a teflon pestle, by 8 ‘up and down strokes’ of a Braun Potter S motor driven homogeniser set to 900 rpm. The resulting homogenate was centrifuged at 1036×g at 4° for 10 min and the supernatant collected. The remaining pellet was resuspended, as above, in fresh ice-cold 0.25M sucrose and the centrifugation step repeated. The supernatant fractions were pooled and centrifuged at 40,000×g (average) at 4° for 15 min and the resulting pellet resuspended in the appropriate assay buffer at a concentration of 20-25 mg wet weight per ml appropriate assay buffer.
Both assays were carried out using 14 ml polypropylene test tubes to which a range of concentrations of the compounds under test were added.
Compounds under test were pre-incubated for 10 min at 30° in incubation buffer (50 mM pH 7.4 HEPES (adjusted to pH 7.4 with Tris base), 130 mM choline chloride, 5.5 mM D-glucose, 0.8 mm MgSO4 and 5 mM KCl) containing 7.5 mg original wet weight of tissue and 100 μg veratrine HCl in a final volume of 0.5 ml. […] A further 2×5 ml of ice-cold wash buffer was added to each tube and the vacuum filtration step repeated. The GF/C glass fibre filters were transferred to minivials and 4 ml Picofluor^40 liquid scintillant added using a Brandel™ deposit/dispense system. Radioactivity was measured using a Beckman Liquid Scintillation Counter.
(§1) Data are presented as mean±sem of number of experiments indicated in brackets.

[3] = test system: 0.4 mm slices of rat hippocampus; assay: hippocampal slice assay: ATP after iodoacetate metabolic insult; conditions: for Emax: read-out: Max Protection (% v TTX)
[4] = target: T1, DiHydroFolate Reductase (DHFR) (Rattus norvegicus, UniProt Q920D2); assay: inhibition of binding of [3H]methotrexate to rat liver homogenate supernatant; conditions: for IC50: rat liver supernatant
T1 construct: from tissue; host or cells: rat liver homogenate supernatant (47,500 x g)
T1 sequence (Q920D2 1-187): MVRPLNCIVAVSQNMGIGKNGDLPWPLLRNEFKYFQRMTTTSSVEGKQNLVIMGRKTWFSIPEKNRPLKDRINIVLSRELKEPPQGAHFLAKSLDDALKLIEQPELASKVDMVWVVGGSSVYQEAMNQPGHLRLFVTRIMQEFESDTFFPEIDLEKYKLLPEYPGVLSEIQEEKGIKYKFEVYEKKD
Procedure: All steps were carried out at 4° (or on ice). Freshly dissected rat liver was dissected into 0.25M ice-cold Sucrose and subsequently homogenised (U-turrax) in 50 mM pH 6.0 phosphate buffer (10 ml/g tissue) containing 15 mM Dithiothreitol. The resulting homogenate was centrifuged @ 47,500×g for 20 min and supernatant (filtered through cotton wool to remove fatty lumps) stored @-80° before use (Rothenberg et al).
The binding reaction was stopped by the addition of 50 μl of a charcoal suspension (consisting of charcoal, Bovine Serum Albumin and Dextran present in a weight ratio of 100:4:1 suspended in 50 mM pH 6.0 phosphate buffer. Samples were vortexed, allowed to stand for 2 minutes and charcoal was precipitated by microcentrifugation @ full speed for 5 min. Aliquots of clear supernatant were transferred to counting vials containing liquid scintillant for measurement of radioactivity using Liquid Scintillation Spectroscopy.
Percentage inhibition values were calculated by comparison to this value.
as §1

hERG potassium channel [5] = target: T2, hERG potassium channel (Homo sapiens, UniProt Q12809); assay: in vitro
T2 sequence (Q12809 whole entry): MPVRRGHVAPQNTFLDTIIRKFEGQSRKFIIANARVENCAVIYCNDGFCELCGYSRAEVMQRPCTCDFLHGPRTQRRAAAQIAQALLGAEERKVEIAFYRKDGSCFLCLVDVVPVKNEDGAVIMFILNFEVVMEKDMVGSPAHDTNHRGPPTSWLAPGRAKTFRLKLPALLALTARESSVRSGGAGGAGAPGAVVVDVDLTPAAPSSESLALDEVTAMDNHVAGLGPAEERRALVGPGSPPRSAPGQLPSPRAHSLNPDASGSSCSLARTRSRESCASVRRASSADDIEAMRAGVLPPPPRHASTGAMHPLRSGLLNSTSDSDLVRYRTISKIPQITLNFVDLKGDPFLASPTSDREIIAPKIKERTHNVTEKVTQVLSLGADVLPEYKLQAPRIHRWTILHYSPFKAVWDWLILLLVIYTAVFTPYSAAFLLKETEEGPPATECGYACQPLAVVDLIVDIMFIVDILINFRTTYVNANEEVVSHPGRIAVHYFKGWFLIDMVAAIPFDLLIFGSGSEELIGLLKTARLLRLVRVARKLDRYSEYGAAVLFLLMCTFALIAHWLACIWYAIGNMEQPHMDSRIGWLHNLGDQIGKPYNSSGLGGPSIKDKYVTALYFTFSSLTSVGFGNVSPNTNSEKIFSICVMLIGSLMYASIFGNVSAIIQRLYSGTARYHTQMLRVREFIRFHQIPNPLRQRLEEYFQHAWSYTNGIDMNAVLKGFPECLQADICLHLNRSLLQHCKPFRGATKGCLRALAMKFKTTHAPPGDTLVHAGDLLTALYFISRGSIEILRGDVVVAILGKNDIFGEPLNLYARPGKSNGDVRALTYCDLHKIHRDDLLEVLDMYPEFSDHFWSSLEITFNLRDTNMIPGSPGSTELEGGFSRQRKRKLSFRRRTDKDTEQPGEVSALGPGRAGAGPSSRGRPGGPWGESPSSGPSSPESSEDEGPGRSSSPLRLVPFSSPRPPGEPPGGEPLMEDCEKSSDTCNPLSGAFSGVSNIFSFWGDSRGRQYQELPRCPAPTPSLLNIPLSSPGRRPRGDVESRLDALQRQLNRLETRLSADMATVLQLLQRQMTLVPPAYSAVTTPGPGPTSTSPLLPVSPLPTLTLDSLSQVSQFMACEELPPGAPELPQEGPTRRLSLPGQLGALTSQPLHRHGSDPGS

hERG potassium channel [6] = target: T2, hERG potassium channel; assay: inhibition of binding of [3H]astemizole to cell membranes expressing hERG
[7] = Table 1, synaptosomes, mean ± sem (n), read-out: [3H]BTX-B binding (synaptosomes), mean IC50
[8] = Table 4, tissue prep'n Homogenate, read-out: [3H]BTX-B binding Mean (IC50: μM)
[9] = Table 4, tissue prep'n Synaptosomes, read-out: [3H]BTX-B binding Mean (IC50: μM)
[10] = Table 5, Synaptosome data, read-out: [3H]BTX-B IC50
[11] = Table 1, mean ± sem (n), read-out: [14C] guanidine uptake (synaptosomes), mean IC50
[12] = Table 3, rat forebrain synaptosomes, read-out: [14C]guanidine flux Mean (IC50: μM)
[13] = Table 5, read-out: [14C]guanidine flux IC50
[14] = Rattus norvegicus, read-out: EC50 (max set @ 100)
[15] = Rattus norvegicus, read-out: hippocampal slice EC50 (μM)
[16] = read-out: [3H]methotrexate binding Inhibition (% @ assay conc'n), assay concentration 10 μM
[17] = read-out: [3H]methotrexate binding Inhibition (% @ assay conc'n), assay concentration 99 μM
[18] = hERG / [3H]BTX-B selectivity, ratio of extrapolated hERG IC50 to [3H]BTX-B IC50 (synaptosomes)
[19] = hERG / [14C]guanidine flux selectivity, ratio of extrapolated hERG IC50 to [14C]guanidine flux IC50

| Structure (SMILES) | IC50 (sodium channel [1]; [9]) [µM] | IC50 (sodium channel [1]; [10]) [µM] | IC50 (sodium channel [2]; [12]) [µM] | IC50 (sodium channel [2]; [13]) [µM] | EC50 [3, 14] [µM] | Emax ([3]; Rattus norvegicus) [%] | EC50 [3, 15] [µM] | inhibition at 10 µM [4, 16] [%] | inhibition at 99 µM [4, 17] [%] | inhibition at 10 µM (hERG potassium channel [5]) [%] | selectivity ratio (hERG potassium channel [5]; [18]) | selectivity ratio (hERG potassium channel [5]; [19]) | IC50 (hERG potassium channel [6]) [µM] | also measured |
| --- | --- | --- | --- | --- | --- | --- | --- | --- | --- | --- | --- | --- | --- | --- |
| Cn1nc(-c2ccc(Cl)cc2Cl)c(N)nc1=N (as salt: methanesulfonate) [Example 45, 5(3)-Amino-6-(2,4-dichlorophenyl)-2,3(2,5)-dihydro-3(5)-imino-2-methyl-1,2,4-triazine methanesulfonate] |  |  |  |  |  |  |  |  |  |  |  |  |  | melting point: 283 to 285 °C |
| Cn1nc(-c2ccccc2)c(N)nc1=N (as salt: methanesulfonate) [Example 46, 5(3)-Amino-6-phenyl-2,3(2,5)-dihydro-3(5)-imino-2-methyl-1,2,4-triazine methanesulfonate] |  |  |  |  |  |  |  |  |  |  |  |  |  | melting point: 230 to 232 °C |
| CCn1nc(-c2ccccc2)c(N)nc1=N (as salt: methanesulfonate) [Example 47, 5(3)-Amino-6-phenyl-2,3(2,5)-dihydro-3(5)-imino-2-ethyl-1,2,4-triazine methanesulfonate] |  |  |  |  |  |  |  |  |  |  |  |  |  | melting point: 230 to 232 °C |
| Cn1nc(-c2cc(Cl)ccc2Cl)c(N)nc1=N (as salt: methanesulfonate) [Example 48, 5(3)-Amino-6-(2,5-dichlorophenyl)-2,3(2,5)-dihydro-3(5)-imino-2-methyl-1,2,4-triazine methanesulfonate] |  |  |  |  |  |  |  |  |  |  |  |  |  | melting point: 297 to 298 °C |
| Nc1nnc(-c2cccc(Cl)c2Cl)c(N)n1 [Example 1, 5(3)-amino-6-(2,3-dichlorophenyl)-2,3(2,5)-dihydro-3(5)-imino-1,2,4-triazine, reference compound] | 76.6 | 76.6 | 209 | 209 | 33.1 | 79 | 30.2 |  |  |  |  |  |  | IC50 (sodium channel [1]; [7]): 82.6 ± 2.3 µM; IC50 (sodium channel [1]; [8]): 97.9 µM; IC50 (sodium channel [2]; [11]): 186 ± 26.5 µM; pIC50 (uptake of [14C]guanidine) (sodium channel [2]; Table 8, listed as Lamotrigine): 3.75 ± 0.13 and 3.68 ± 0.27; IC50 (sodium channel [2]; Table 8, listed as Lamotrigine, read-out: IC50 (μM) (uptake of [14C]guanidine)): 178 µM and 209 µM |
| Cn1nc(-c2cccc(Cl)c2Cl)c(N)nc1=N [Example 2, 5-amino-6-(2,3-dichlorophenyl)-2,3-dihydro-3-imino-2-methyl-1,2,4-triazine] | 7.2 | 7.2 | 35.9 | 35.9 | 37.4 | 98 ± 5 | 36.3 | 0 | -3 | 12 | 10.2 | 2 | 73.3 | IC50 (sodium channel [1]; [7]): 7.4 ± 0.4 µM; IC50 (sodium channel [1]; [8]): 2.5 µM; IC50 (sodium channel [2]; [11]): 35.9 ± 1.8 µM |
| CCn1nc(-c2cccc(Cl)c2Cl)c(N)nc1=N [Example 3, 5(3)-Amino-6-(2,3-dichlorophenyl)-2,3(2,5)-dihydro-3(5)-imino-2-ethyl-1,2,4-triazine] | 3.7 |  | 6.4 |  |  |  |  |  |  |  |  |  |  | IC50 (sodium channel [1]; [8]): 0.9 µM; [3H]methotrexate binding Inhibition (% @ assay conc'n) ([4]; assay concentration 10 μM): 0%; [3H]methotrexate binding Inhibition (% @ assay conc'n) ([4]; assay concentration 99 μM): 1%; Max Protection (% v TTX) ([3]; compared with the effect of 1 μM TTX = 100% protection): 87.0 % v TTX; EC50 ([3]; read-out: EC50 (max set @ 100), data re-computed setting max @ 100%): 20 µM; EC50 ([3]; read-out: hippocampal slice EC50, protection of ATP after iodoacetate): 16 µM |
| CCCn1nc(-c2cccc(Cl)c2Cl)c(N)nc1=N [Example 6, 5(3)-Amino-6-(2,3-dichlorophenyl)-2,3(2,5)-dihydro-3(5)-imino-2-propyl-1,2,4-triazine] | 3.6 | 2.2 | 2.8 | 4.8 | 14.5 | 81 ± 27 | 10.4 | 0 | 2 | 78 | 1.3 | 0.6 | 2.8 | IC50 (sodium channel [1]; [8]): 0.5 µM |
| CC(C)Cn1nc(-c2cccc(Cl)c2Cl)c(N)nc1=N [Example 7, 5(3)-Amino-6-(2,3-dichlorophenyl)-2,3(2,5)-dihydro-3(5)-imino-2-isobutyl-1,2,4-triazine methanesulfonate] | 1 |  | 2.9 |  |  | 47 ± 3 | 1.3 | -4 | -2 |  |  |  |  |  |
| CCCCn1nc(-c2cccc(Cl)c2Cl)c(N)nc1=N [Example 8, 5(3)-Amino-6-(2,3-dichlorophenyl)-2,3(2,5)-dihydro-3(5)-imino-2-butyl-1,2,4-triazine] | 1.7 |  | 2.1 |  |  | 46 | 10 | -4 | -2 |  |  |  |  |  |
| N=c1nc(N)c(-c2cccc(Cl)c2Cl)nn1Cc1ccccc1 [Example 9, 5(3)-Amino-6-(2,3-dichlorophenyl)-2,3(2,5)-dihydro-3(5)-imino-2-phenylmethyl-1,2,4-triazine hemi-methanesulfonate] | 2.2 |  | 4.8 |  |  |  | > 30 | 2 | -4 |  |  |  |  |  |
| Nc1nnc(-c2cc(Cl)cc(Cl)c2Cl)c(N)n1 [Example 31, 6-(2,3,5-trichlorophenyl)-1,2,4-triazine-3,5-diamine] | 21.9 | 21.9 | 16.2 | 16.2 | 2.2 | 91 ± 4 | 1.8 |  |  | 13 | 3.1 | 4.1 | 66.9 | IC50 [4]: 41 ± 4.7 µM |
| Cn1nc(-c2cc(Cl)cc(Cl)c2Cl)c(N)nc1=N [Example 32, 5(3)-Amino-6-(2,3,5-trichlorophenyl)-2,3(2,5)-dihydro-3(5)-imino-2-methyl-1,2,4-triazine] | 1.9 | 1.9 | 6.4 | 6.4 |  | 65 ± 7 | 5.9 |  |  | 33 | 10.7 | 3.2 | 20.3 | IC50 [4]: > 250 µM |
| CCCn1nc(-c2cc(Cl)cc(Cl)c2Cl)c(N)nc1=N [Example 34, 5(3)-Amino-6-(2,3,5-trichlorophenyl)-2,3(2,5)-dihydro-3(5)-imino-2-propyl-1,2,4-triazine] | 0.5 | 0.5 | 1.3 | 1.3 |  | 37 | 9.8 |  |  | 62 | 12.3 | 4.7 | 6.1 | IC50 [4]: > 300 µM |
| CN1CCN(c2ncc(-c3cc(Cl)cc(Cl)c3Cl)c(N)n2)CC1 [Sipatrigine, reference compound] |  |  |  |  | 12.6 | 90 | 10.7 | 0 |  |  |  |  | 1.5 | inhibition at 198 µM ([4]; read-out: [3H]methotrexate binding Inhibition (% @ assay conc'n), assay concentration 198 μM): -6%; inhibition at 10 µM (hERG potassium channel [5]; hERG % inhibition @ 10 μM): 87% |
